The subject of this experiment is L1210 leukemia ip in BDF1 mice, survival T/C. In words: NCI In Vivo Anticancer Drug Screen. Data for tumor model L1210 Leukemia (intraperitoneal) in B6D2F1 (BDF1) mice. The settings on record: endpoint: mean survival time, higher = longer survival. The procedure, abridged: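 Survival endpoint. Drug-treated group vs vehicle group, expressed as T divided by C. Tumor passaged by transplantation.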

The mark [1] stands for this setting: dose: 50.0 mg/kg/injection, schedule: Q01DX009 (ip), vehicle: saline with Tween-80.
[2] abbreviates: dose: 100.0 mg/kg/injection, schedule: Q01DX009 (ip), vehicle: saline with Tween-80.
Where [3] appears, read: dose: 100.0 mg/kg/injection, schedule: Q04DX002 (ip), vehicle: saline with Tween-80.
Where [4] appears, read: dose: 200.0 mg/kg/injection, schedule: Q01DX009 (ip), vehicle: saline with Tween-80.
Where [5] appears, read: dose: 200.0 mg/kg/injection, schedule: Q04DX002 (ip), vehicle: saline with Tween-80.
[6] abbreviates: dose: 100.0 mg/kg/injection, schedule: Q04DX003 (ip), vehicle: acetone.
[7] abbreviates: dose: 100.0 mg/kg/injection, schedule: Q01DX001 (ip), vehicle: Klucel (hydroxypropylcellulose) (HPC).
The mark [8] stands for this setting: dose: 200.0 mg/kg/injection, schedule: Q01DX001 (ip), vehicle: Klucel (hydroxypropylcellulose) (HPC).
[9] abbreviates: dose: 100.0 mg/kg/injection, schedule: Q04DX003 (ip), vehicle: saline with Tween-80.
The mark [10] stands for this setting: dose: 200.0 mg/kg/injection, schedule: Q04DX003 (ip), vehicle: saline with Tween-80.
Setting [11] is: dose: 400.0 mg/kg/injection, schedule: Q01DX009 (ip), vehicle: saline with Tween-80.
[12] abbreviates: dose: 400.0 mg/kg/injection, schedule: Q04DX003 (ip), vehicle: saline with Tween-80.

Where “and” joins values, the source holds several entries; their conditions need not be identical. Equal values may be shown once. Inconclusive results and toxic doses are left out.

Consider `CC1CC(NC(=O)CC#N)CC(C)(C)C1` (centres undefined), for which the T/C was 93 % of control under setting [1]; 90 % of control under setting [2]; 94 % of control under setting [3]; 97 % of control under setting [4]; 102 % of control under setting [5].
For `O=C(NCC(F)(F)C(F)(F)C(F)(F)C(F)(F)C(F)(F)C(F)(F)C(F)(F)F)Oc1ccccc1`, the T/C is 104 % of control (dose: 75.0 mg/kg/injection, schedule: Q01DX001 (ip), vehicle: other); 96 % of control (dose: 150.0 mg/kg/injection, schedule: Q01DX001 (ip), vehicle: other); 94 % of control (dose: 300.0 mg/kg/injection, schedule: Q01DX001 (ip), vehicle: other).
Consider `CCCCCCCCSC(=S)S.[Fe]`, for which the T/C is, setting by setting: (dose: 100.0 mg/kg/injection, schedule: Q04DX002 (ip), vehicle: Klucel (hydroxypropylcellulose) (HPC)) 88 % of control; (dose: 200.0 mg/kg/injection, schedule: Q04DX002 (ip), vehicle: Klucel (hydroxypropylcellulose) (HPC)) 95 % of control; (dose: 400.0 mg/kg/injection, schedule: Q04DX002 (ip), vehicle: Klucel (hydroxypropylcellulose) (HPC)) 91 % of control.
For the molecule `COc1ccc(CCN(CCO)CCNS(=O)(=O)c2ccc(C)cc2)cc1`, the T/C by setting is: (dose: 100.0 mg/kg/injection, schedule: Q01DX001 (ip), vehicle: water) 98 % of control; (dose: 200.0 mg/kg/injection, schedule: Q01DX001 (ip), vehicle: water) 107 % of control; (dose: 400.0 mg/kg/injection, schedule: Q01DX001 (ip), vehicle: water) 107 % of control.
Take `CCC(Cl)COP(=O)(OCC(Cl)CC)OC(CC)P(=O)(OCC(Cl)CC)OCC(Cl)CC` (centres undefined): the T/C reads like this: (dose: 100.0 mg/kg/injection, schedule: Q04DX003 (ip), vehicle: Klucel (hydroxypropylcellulose) (HPC)) 93 % of control; (dose: 200.0 mg/kg/injection, schedule: Q04DX003 (ip), vehicle: Klucel (hydroxypropylcellulose) (HPC)) 93 % of control; (dose: 400.0 mg/kg/injection, schedule: Q04DX003 (ip), vehicle: Klucel (hydroxypropylcellulose) (HPC)) 95 % of control.
As for `O=c1[nH]c2cc(Cl)ccc2c(CCl)c1Cl`, the T/C was 92 % of control (dose: 25.0 mg/kg/injection, schedule: Q01DX009 (ip), vehicle: saline with Tween-80); 94 % of control under setting [1]; 89 % of control under setting [2]; 100 % of control under setting [6].
Consider `O=C1C(NC2CCCCC2)=C(c2ccccc2)c2ccccc21`, for which the T/C by setting is: (dose: 50.0 mg/kg/injection, schedule: Q01DX001 (ip), vehicle: Klucel (hydroxypropylcellulose) (HPC)) 94 % of control; under setting [7], 92 % of control; under setting [8], 94 % of control.
Turning to `CC1=CCC2(C)CCC(C(C)C)C2(O)CC1` (centres undefined), the T/C (dose: 100.0 mg/kg/injection, schedule: Q01DX009 (ip), vehicle: saline) is 91 % of control and the T/C (dose: 200.0 mg/kg/injection, schedule: Q01DX009 (ip), vehicle: saline) is 93 % of control.
As for `C/C=C(/Br)C(=O)O`, the T/C (dose: 12.5 mg/kg/injection, schedule: Q04DX002 (ip), vehicle: saline with Tween-80) is 113 % of control; the T/C (dose: 25.0 mg/kg/injection, schedule: Q04DX002 (ip), vehicle: saline with Tween-80) is 105 % of control; the T/C (dose: 50.0 mg/kg/injection, schedule: Q04DX002 (ip), vehicle: saline with Tween-80) was 98 % of control; the T/C under setting [3] is 105 % of control.
As to `CCN(CC)CCOc1ccc(-c2ccccc2)cc1`, the T/C (dose: 50.0 mg/kg/injection, schedule: Q04DX003 (ip), vehicle: saline with Tween-80) was 98 % of control and the T/C under setting [9] was 277 % of control.
With `Cc1c(-c2ccccc2)ccnc1C#N`, the T/C was 97 % of control under setting [1], 102 % of control under setting [2] and 97 % of control under setting [4].
On to `Cc1nccnc1S(=O)c1ccc(Br)cc1` (centres undefined), for which the T/C by setting is: under setting [7], 98 % of control; under setting [8], 95 % of control; (dose: 400.0 mg/kg/injection, schedule: Q01DX001 (ip), vehicle: Klucel (hydroxypropylcellulose) (HPC)) 92 % of control.
With `CNCCc1cc2c(c(OC)c1/C=C/C(=O)/C=C/c1c(CCNC)cc3c(c1OC)OCO3)OCO2`, the T/C is 100 % of control (dose: 75.0 mg/kg/injection, schedule: Q01DX001 (ip), vehicle: carboxymethylcellulose (CMC)) and 100 % of control (dose: 150.0 mg/kg/injection, schedule: Q01DX001 (ip), vehicle: carboxymethylcellulose (CMC)).
Consider `CSc1nc(N)c(N)c(SC)n1`, for which the T/C is 91 % of control (dose: 16.0 mg/kg/injection, schedule: Q01DX Z (ip), vehicle: methylcellulose (MC)); 93 % of control (dose: 31.0 mg/kg/injection, schedule: Q01DX Z (ip), vehicle: methylcellulose (MC)); 96 % of control (dose: 62.0 mg/kg/injection, schedule: Q01DX Z (ip), vehicle: methylcellulose (MC)); 102 % of control (dose: 100.0 mg/kg/injection, schedule: Q01DX001 (ip), vehicle: other); 94 % of control (dose: 100.0 mg/kg/injection, schedule: Q04DX003 (ip), vehicle: other); 93 % of control (dose: 125.0 mg/kg/injection, schedule: Q01DX Z (ip), vehicle: methylcellulose (MC)). Further, the T/C (dose: 200.0 mg/kg/injection, schedule: Q01DX001 (ip), vehicle: other) is 101 % of control; the T/C (dose: 200.0 mg/kg/injection, schedule: Q04DX003 (ip), vehicle: other) was 96 % of control; the T/C (dose: 400.0 mg/kg/injection, schedule: Q01DX001 (ip), vehicle: other) is 96 % of control; the T/C (dose: 400.0 mg/kg/injection, schedule: Q04DX003 (ip), vehicle: other) was 102 % of control.
Consider `COc1ccc(N2C(=O)CC(Cl)C2=O)cc1` (centres undefined), for which the T/C was 105 % of control (dose: 22.0 mg/kg/injection, schedule: Q04DX003 (ip), vehicle: Klucel (hydroxypropylcellulose) (HPC)); 97 % of control (dose: 44.0 mg/kg/injection, schedule: Q04DX003 (ip), vehicle: Klucel (hydroxypropylcellulose) (HPC)); 103 % of control (dose: 87.5 mg/kg/injection, schedule: Q04DX003 (ip), vehicle: saline with Tween-80); 111 % of control (dose: 88.0 mg/kg/injection, schedule: Q04DX003 (ip), vehicle: Klucel (hydroxypropylcellulose) (HPC)).
With `O=C(CCCCCCCCC(=O)N/N=C/c1ccccc1)N/N=C/c1ccccc1`, the T/C is 96 % of control and 90 % of control (dose: 100.0 mg/kg/injection, schedule: Q01DX001 (ip), vehicle: saline with Tween-80); 102 % of control and 92 % of control under setting [2]; 93 % of control and 97 % of control under setting [3]; 97 % of control under setting [9]; 88 % of control (dose: 200.0 mg/kg/injection, schedule: Q01DX001 (ip), vehicle: saline with Tween-80); 93 % of control and 97 % of control under setting [4]. In addition, the T/C runs as follows: under setting [5], 95 % of control and 87 % of control; under setting [10], 97 % of control; (dose: 400.0 mg/kg/injection, schedule: Q01DX001 (ip), vehicle: saline with Tween-80) 86 % of control and 91 % of control; under setting [11], 91 % of control and 92 % of control; (dose: 400.0 mg/kg/injection, schedule: Q04DX002 (ip), vehicle: saline with Tween-80) 93 % of control and 90 % of control; under setting [12], 92 % of control.
On to `Cc1cc(C#N)n(O)c1`, for which the T/C by setting is: (dose: 50.0 mg/kg/injection, schedule: Q01DX009 (ip), vehicle: Klucel (hydroxypropylcellulose) (HPC)) 103 % of control; (dose: 100.0 mg/kg/injection, schedule: Q01DX009 (ip), vehicle: Klucel (hydroxypropylcellulose) (HPC)) 100 % of control; (dose: 200.0 mg/kg/injection, schedule: Q01DX009 (ip), vehicle: Klucel (hydroxypropylcellulose) (HPC)) 101 % of control.
In the case of `N#C/C(=C1C=C(Br)/C(=N\O)C=C\1Cl)c1ccc(Cl)cc1`, the T/C was 95 % of control (dose: 100.0 mg/kg/injection, schedule: Q01DX009 (ip), vehicle: acetone); 100 % of control under setting [6]; 100 % of control (dose: 200.0 mg/kg/injection, schedule: Q04DX003 (ip), vehicle: acetone); 94 % of control (dose: 400.0 mg/kg/injection, schedule: Q04DX003 (ip), vehicle: acetone).
As for `CC(=O)OCC(C)([N+](=O)[O-])[N+](=O)[O-]`, the T/C under setting [2] is 93 % of control; the T/C under setting [9] was 95 % of control; the T/C under setting [4] was 90 % of control; the T/C under setting [10] was 101 % of control; the T/C under setting [11] is 91 % of control; the T/C under setting [12] is 103 % of control.

Source of the values: PubChem BioAssay AID248 (DTP/NCI, 2004).
